# Laboratory results taken from PubChem BioAssay (NCI).
#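 All cell lines were grown in 96-well plates and treated with compound for 48 hours. GI50: concentration for 50% inhibition of growth. The concentration for full growth arrest is given as TGI.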
# Tests used:
# Experiment in all cases: NCI tumour cell line growth inhibition, 48 h
# [1] = test system: PC-3 prostate
# [2] = test system: SNB-75 CNS
# [3] = test system: RXF 393 renal
# [4] = test system: OVCAR-3 ovarian
# [5] = test system: EKVX NSCLC
# [6] = test system: OVCAR-5 ovarian
# [7] = test system: UACC-257 melanoma
# [8] = test system: SF-539 CNS
# [9] = test system: 786-0 renal
# [10] = test system: MDA-MB-231 breast
# [11] = test system: HOP-92 NSCLC
# [12] = test system: HS 578T breast
# [13] = test system: IGROV1 ovarian
# [14] = test system: UACC-62 melanoma
# [15] = test system: SK-OV-3 ovarian
# [16] = test system: CAKI-1 renal
# [17] = test system: HCC-2998 colon
# [18] = test system: RPMI-8226 leukemia
# [19] = test system: NCI-H23 lung
# [20] = test system: DU-145 prostate
# [21] = test system: SK-MEL-5 melanoma
# [22] = test system: SK-MEL-28 melanoma
# [23] = test system: SN12C renal
# [24] = test system: KM12 colon
# [25] = test system: ACHN renal
# [26] = test system: BT-549 breast
# [27] = test system: COLO 205 colon
# [28] = test system: NCI-H226 lung
# [29] = test system: MOLT-4 leukemia
# [30] = test system: NCI/ADR-RES ovarian
# [31] = test system: A498 renal
# [32] = test system: MCF7 breast
# [33] = test system: U251 CNS
# [34] = test system: HCT-116 colon
# [35] = test system: SK-MEL-2 melanoma
# [36] = test system: T-47D breast
# [37] = test system: OVCAR-8 ovarian
# [38] = test system: SW-620 colon
# [39] = test system: K-562 leukemia
# [40] = test system: HCT-15 colon
# [41] = test system: SR leukemia
# [42] = test system: A549 NSCLC
# [43] = test system: M14 melanoma
# [44] = test system: HOP-62 NSCLC
# [45] = test system: HL-60(TB) leukemia
# [46] = test system: SNB-19 CNS
# [47] = test system: MDA-MB-435
# [48] = test system: SF-268 CNS
# [49] = test system: CCRF-CEM leukemia
# [50] = test system: NCI-H522 lung
# [51] = test system: NCI-H460 lung
# [52] = test system: LOX IMVI melanoma
smiles,measurement,setting,value
COc1ccc(-c2cnnc3c(-c4cccc(C(F)(F)F)c4)cnn23)cc1,GI50,[1],6.22 µM
same,TGI,[1],> 100 µM
same,GI50,[2],1.51 µM
same,TGI,[2],4.6 µM
same,GI50,[3],0.0291 µM
same,TGI,[3],3.07 µM
same,GI50,[4],2.55 µM
same,TGI,[4],6.45 µM
same,GI50,[5],3.41 µM
same,TGI,[5],> 100 µM
same,GI50,[6],> 100 µM
same,TGI,[6],> 100 µM
same,GI50,[7],6.44 µM
same,TGI,[7],> 100 µM
same,GI50,[8],3 µM
same,TGI,[8],> 100 µM
same,GI50,[9],2.76 µM
same,TGI,[9],> 100 µM
same,GI50,[10],3.55 µM
same,TGI,[10],> 100 µM
same,TGI,[11],2.85 µM
same,GI50,[12],4.11 µM
same,TGI,[12],> 100 µM
same,GI50,[13],1.97 µM
same,TGI,[13],> 100 µM
same,GI50,[14],4.01 µM
same,TGI,[14],> 100 µM
same,GI50,[15],3.5 µM
same,TGI,[15],> 100 µM
same,GI50,[16],3.3 µM
same,TGI,[16],> 100 µM
same,GI50,[17],> 100 µM
same,TGI,[17],> 100 µM
same,GI50,[18],2.72 µM
same,TGI,[18],> 100 µM
same,GI50,[19],4.26 µM
same,TGI,[19],> 100 µM
same,GI50,[20],3.97 µM
same,TGI,[20],> 100 µM
same,GI50,[21],3.85 µM
same,TGI,[21],> 100 µM
same,GI50,[22],3.14 µM
same,TGI,[22],> 100 µM
same,GI50,[23],3.07 µM
same,TGI,[23],> 100 µM
same,GI50,[24],> 100 µM
same,TGI,[24],> 100 µM
same,GI50,[25],3.52 µM
same,TGI,[25],> 100 µM
same,GI50,[26],3.4 µM
same,TGI,[26],> 100 µM
same,GI50,[27],> 100 µM
same,TGI,[27],> 100 µM
same,GI50,[28],2.64 µM
same,TGI,[28],> 100 µM
same,GI50,[29],> 100 µM
same,TGI,[29],> 100 µM
same,GI50,[30],3.05 µM
same,TGI,[30],> 100 µM
same,GI50,[31],3.52 µM
same,TGI,[31],62.6 µM
same,GI50,[32],> 100 µM
same,TGI,[32],> 100 µM
same,GI50,[33],3.61 µM
same,TGI,[33],> 100 µM
same,GI50,[34],3.46 µM
same,TGI,[34],> 100 µM
same,GI50,[35],1.43 µM
same,TGI,[35],79.8 µM
same,GI50,[36],6.37 µM
same,TGI,[36],> 100 µM
same,GI50,[37],3.33 µM
same,TGI,[37],> 100 µM
same,GI50,[38],> 100 µM
same,TGI,[38],> 100 µM
same,GI50,[39],> 100 µM
same,TGI,[39],> 100 µM
same,GI50,[40],> 100 µM
same,TGI,[40],> 100 µM
same,GI50,[41],> 100 µM
same,TGI,[41],> 100 µM
same,GI50,[42],4.19 µM
same,TGI,[42],> 100 µM
same,GI50,[43],> 100 µM
same,TGI,[43],> 100 µM
same,GI50,[44],2.72 µM
same,TGI,[44],13.1 µM
same,GI50,[45],> 100 µM
same,TGI,[45],> 100 µM
same,GI50,[46],2.45 µM
same,TGI,[46],7.44 µM
same,GI50,[47],5.04 µM
same,TGI,[47],> 100 µM
same,GI50,[48],1.78 µM
same,TGI,[48],7.4 µM
same,GI50,[49],> 100 µM
same,TGI,[49],> 100 µM
same,GI50,[50],3.66 µM
same,TGI,[50],> 100 µM
same,GI50,[51],4.67 µM
same,TGI,[51],> 100 µM
same,GI50,[52],> 100 µM
same,TGI,[52],> 100 µM
